Structures can show the parent of a compound that is named as a salt.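 Step 1: Grow cells in 96-well plates. Step 2: Expose to compound for 48 hours at 5 concentrations. Step 3: Interpolate endpoints linearly; if unreached, use highest concentration. At the GI50, growth is halved.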 Calls of active or inactive are those of the source. No stated cut-off is given here; in the data, active = GI50 up to about 1.1 µM and inactive = higher.
Tests used:
Assay in all cases: inhibition of tumour cell growth, NCI panel, 48 h
[1] = system: CCRF-CEM
[2] = system: PC-3
[3] = system: NCI-H522
[4] = system: SR
[5] = system: A498
[6] = system: CAKI-1
[7] = system: UO-31
[8] = system: UACC-257
[9] = system: MDA-MB-231
[10] = system: SK-MEL-5
[11] = system: SK-MEL-2
[12] = system: RXF 393
[13] = system: M14
[14] = system: NCI-H23
[15] = system: HOP-92
[16] = system: DU-145
[17] = system: HCT-116
[18] = system: LOX IMVI
[19] = system: EKVX
[20] = system: HOP-62
[21] = system: IGROV-1
[22] = system: U-251
[23] = system: BT-549
[24] = system: MDA-N
[25] = system: SF-295
[26] = system: SNB-75
[27] = system: ACHN
[28] = system: MCF7
[29] = system: A549
[30] = system: OVCAR-3
[31] = system: RPMI-8226
[32] = system: KM12
[33] = system: Hs-578T
[34] = system: Malme-3M
[35] = system: OVCAR-4
[36] = system: OVCAR-5
[37] = system: NCI/ADR-RES
[38] = system: COLO 205
[39] = system: MDA-MB-435
[40] = system: HL-60
[41] = system: HCT-15
[42] = system: NCI-H226
[43] = system: SK-OV-3
[44] = system: HT-29
[45] = system: OVCAR-8
[46] = system: SW-620
[47] = system: UACC-62
[48] = system: SF-268
[49] = system: K562
[50] = system: SNB-19
[51] = system: T47D
[52] = system: 786-0
[53] = system: TK-10
[54] = system: SK-MEL-28
[55] = system: MOLT-4
[56] = system: SN12C
[57] = system: HCC 2998
[58] = system: SF-539
[59] = system: NCI-H460

Measured: GI50

CN1[C@@H]2CC[C@H]1C[C@@H](OC(c1ccccc1)c1ccccc1)C2 [BENZTROPINE MESYLATE]
inactive: [1] 14 µM | [2] 16.6 µM | [3] 14.9 µM | [4] 19.5 µM | [5] 14 µM | [6] 23.6 µM | [7] 15.3 µM | [8] 13.7 µM | [9] 17.5 µM | [10] 15.6 µM | [11] 17.1 µM | [12] 15.5 µM | [13] 14.7 µM | [14] 27.3 µM | [15] 12.4 µM | [16] 26.9 µM | [17] 12.6 µM | [18] 16 µM | [19] 31.6 µM | [20] 15.6 µM | [21] 17 µM | [22] 15.5 µM | [23] 19.1 µM | [24] 15.1 µM | [25] 11.4 µM | [26] 17.3 µM | [27] 19.7 µM | [28] 13.9 µM | [29] 16.9 µM | [30] 15.9 µM | [31] 14.7 µM | [32] 17.2 µM | [33] 13.1 µM | [34] 14.9 µM | [35] 25.5 µM | [36] 18.4 µM | [37] 16.2 µM | [38] 11.3 µM | [39] 13.9 µM | [40] 18.2 µM | [42] 27.5 µM | [43] 17.9 µM | [44] 11 µM | [45] 16.4 µM | [46] 14.5 µM | [47] 16.8 µM | [48] 18.5 µM | [49] 13.1 µM | [50] 22 µM | [51] 17.3 µM | [52] 14 µM | [53] 17.3 µM | [54] 14.7 µM | [55] 21 µM | [56] 27.9 µM
22.5 µM: [41]

COc1ccc(/C(=N/N=c2\[nH]c3ccccc3n2Cc2ccccc2)C(=O)O)cc1
inactive: [1] 3.97 µM | [2] 7.41 µM | [3] 8.65 µM | [4] 3.29 µM | [5] 13.1 µM | [6] 16.7 µM | [7] 25.8 µM | [8] 29 µM | [9] 23.3 µM | [57] 10 µM | [10] 15.5 µM | [11] 28.4 µM | [13] 14.5 µM | [58] 23.7 µM | [14] 14.1 µM | [15] 11.7 µM | [16] 30.7 µM | [17] 12.7 µM | [18] 6.89 µM | [19] 31.3 µM | [20] 10.5 µM | [21] 6.92 µM | [22] 11.1 µM | [23] 25.1 µM | [24] 32 µM | [25] 6.81 µM | [26] 18.3 µM | [27] 22.6 µM | [28] 13.2 µM | [29] 23 µM | [30] 2.52 µM | [31] 10 µM | [32] 17.5 µM | [33] 31.7 µM | [34] 17.6 µM | [35] 7.76 µM | [36] 48.5 µM | [37] 5.19 µM | [38] 4.03 µM | [39] 21.1 µM | [40] 3.19 µM | [42] 20.2 µM | [59] 4.8 µM | [43] 13.7 µM | [44] 22 µM | [45] 21.8 µM | [46] 27 µM | [47] 8.36 µM | [48] 7.5 µM | [49] 22.7 µM | [50] 25.7 µM | [51] 14.7 µM | [52] 5.12 µM | [53] 35.3 µM | [54] 23.8 µM | [55] 7.8 µM | [56] 5.96 µM
12.6 µM: [41]

O=C1CSC(/C=C/c2ccccc2)N1c1ccc(-n2c(-c3ccccc3)nc3ccccc3c2=O)cc1 (stereo not given)
inactive: [1] 66.1 µM | [2] 61.2 µM | [3] 50.6 µM | [4] 37.1 µM | [5] > 100 µM | [6] > 100 µM | [7] 16.8 µM | [8] > 100 µM | [9] > 100 µM | [57] 99.5 µM | [10] 68.9 µM | [11] > 100 µM | [13] > 100 µM | [58] 71.4 µM | [14] > 100 µM | [15] > 100 µM | [16] > 100 µM | [17] > 100 µM | [18] 95.3 µM | [19] > 100 µM | [20] 42.7 µM | [21] 74.3 µM | [22] > 100 µM | [23] > 100 µM | [24] > 100 µM | [25] > 100 µM | [26] 22.6 µM | [27] > 10 µM | [28] 52.2 µM | [29] > 100 µM | [30] > 100 µM | [31] > 100 µM | [32] 33.1 µM | [33] > 100 µM | [34] > 100 µM | [35] 19.4 µM | [36] > 100 µM | [37] 59.2 µM | [38] > 100 µM | [39] > 100 µM | [40] > 100 µM | [42] 48.8 µM | [59] 87.3 µM | [43] 19.3 µM | [44] > 100 µM | [45] > 100 µM | [46] > 10 µM | [47] 45.1 µM | [48] 95.5 µM | [49] > 100 µM | [50] > 100 µM | [51] 17 µM | [52] > 100 µM | [53] > 100 µM | [54] > 100 µM | [55] 30.9 µM | [56] > 100 µM
86.9 µM: [41]

NNc1nncc2[nH]cnc12
> 100 µM: [41]
inactive: [1] > 100 µM | [2] > 100 µM | [4] > 100 µM | [5] > 100 µM | [6] > 100 µM | [7] > 100 µM | [8] > 100 µM | [9] > 100 µM | [10] > 100 µM | [11] > 100 µM | [12] > 100 µM | [13] > 100 µM | [58] > 100 µM | [14] > 100 µM | [16] > 100 µM | [17] > 100 µM | [19] > 100 µM | [20] > 100 µM | [21] > 100 µM | [22] > 100 µM | [23] > 100 µM | [24] > 100 µM | [25] > 100 µM | [26] > 100 µM | [27] > 100 µM | [28] > 100 µM | [29] > 100 µM | [30] > 100 µM | [31] > 100 µM | [32] > 100 µM | [33] > 100 µM | [36] > 100 µM | [37] > 100 µM | [38] > 100 µM | [39] > 100 µM | [40] 35.8 µM | [42] > 100 µM | [59] > 100 µM | [44] > 100 µM | [45] > 100 µM | [46] > 100 µM | [47] > 100 µM | [48] > 100 µM | [49] > 100 µM | [50] > 100 µM | [51] > 100 µM | [52] > 100 µM | [53] > 100 µM | [54] > 100 µM | [55] > 100 µM | [56] > 100 µM

CC(=O)OC1CCC2(C)C(CCC3C4CC=C(C5(C)OCCO5)C4(C)CCC32)C1 (stereo not given)
inactive: [1] 19.5 µM | [2] 17.3 µM | [4] 17.1 µM | [5] 24.9 µM | [6] 28.3 µM | [7] 25.4 µM | [8] 18.7 µM | [9] 33.2 µM | [10] 15.6 µM | [11] 18.5 µM | [12] 17.7 µM | [13] 23 µM | [58] 20.5 µM | [14] 25.6 µM | [16] 41.3 µM | [17] 20.1 µM | [18] 16.9 µM | [19] 21.7 µM | [20] 19.1 µM | [21] 24.2 µM | [22] 18 µM | [23] 20.6 µM | [24] 20.3 µM | [25] 26.1 µM | [26] 28.8 µM | [27] 25.1 µM | [28] 22.6 µM | [29] 26.7 µM | [30] 19.7 µM | [31] 14.4 µM | [32] 23.6 µM | [33] 23.3 µM | [34] 22.1 µM | [35] 19.7 µM | [36] 22.1 µM | [37] 20.6 µM | [38] 17.6 µM | [39] 20.3 µM | [40] 19.9 µM | [42] 25.9 µM | [59] 20 µM | [43] 47.9 µM | [44] 19.5 µM | [45] 20.1 µM | [46] 21 µM | [47] 19.9 µM | [48] 27.8 µM | [49] 25.1 µM | [50] 30.2 µM | [51] 22.9 µM | [52] 30.4 µM | [53] 22.5 µM | [54] 21.2 µM | [55] 17.3 µM | [56] 19.6 µM
27.2 µM: [41]

Reference: ChEMBL document CHEMBL1201862, “PubChem BioAssay data set” (2004)
